Source: patent US20250186373A1, “TARGETING AN EUKARYOTIC INITIATION FACTOR 2 ALPHA KINASE TO REGULATE TRANSLATION UNDER STRESS” (The Johns Hopkins University, priority 2022, published 2025)
Like-named read-outs stand apart in the source and are kept apart here. Where a SMILES comes first, the peptide text is derived from it. The star is where a group is joined. Cbz = O=C(OCc1ccccc1)*

Tests used:
MARK2 [1] = molecular target: T1, MARK2 (Mus musculus, UniProt Q05512); test: cell-based MARK2 kinase activity assay based on eIF2α phosphorylation (immunoblot of MEFs); conditions: for phosphorylation level of eIF2α-51S: FIG. 21B; for activity in inhibiting the phosphorylation of eIF2α: comparison of seven drugs, FIG. 21E
T1 construct: endogenous in cells; host or cells: mouse embryonic fibroblasts (MEFs)
Description: Cells were washed twice with 1× PBS and then lysed and harvested on ice in RIPA solution (50 mM Tris-HCl (pH 7.6); 150 mM NaCl; 1% NP-40; 1% SDS; 100 mM sodium fluoride; 17.5 mM β-glycerophosphate; 0.5% sodium deoxycholate; 10% glycerol). The RIPA buffer was supplemented with EDTA-free protease inhibitor cocktail (Roche, USA), phosphatase inhibitor cocktail 2 and phosphatase inhibitor cocktail 3 (Sigma-Aldrich, USA), 1 μM phenylmethanesulfonyl fluoride, and 2 μM sodium orthovanadate. Lysates were kept cold on ice, pulse-sonicated for 10 min, and then centrifuged at 12,000 g at 4° C. for 10 min. The protein content of each sample was determined by a bicinchoninic acid (BCA) assay (Thermo Fisher). Equal amounts of total protein extract were resolved by SDS-PAGE and transferred to nitrocellulose membranes (Millipore HATF08550, USA). The blots were blocked with 5% w/v BSA and 0.05% NaN3 in TBST and incubated with primary antibodies at 4° C. overnight, then finally incubated with appropriate secondary antibodies. The antibodies used include those against eIF2α (Cell Signaling 5324, USA), peIF2α (Cell Signaling 9721), PERK (Cell Signaling 3192), pPERK-^980T (Cell Signaling 3179), PKR (Santa Cruz SC-708 and SC-6282), HRI (Millipore 07-728), GCN2 (Cell Signaling 3302), pGCN2-899T (Abcam ab75836, USA), ATF4 (Cell Signaling 11815), HSP90 (Cell Signaling 8165), HSP70 (Cell Signaling 4872), Flag (Sigma F1804), Actin (Santa Cruz SC-47778), Tubulin (Proteintech 10068-1-AP, USA), PKCδ (Santa Cruz SC-937; Cell Signaling 2058), pPKCδ-311Y (Cell Signaling 2055), pPKCδ-^505T (Cell Signaling 9374), MARK2 (Abcam ab135816; Santa Cruz SC-365405), pMARK2-^595T (Abcam ab34751), PP1a (Cell Signaling 2582), pPP1α-^320T (Cell Signaling 2581), and puromycin (Millipore MABE343). Images were captured with an Odyssey imager and analyzed with Image Studio software (Licor 9120, USA).

MARK2 [2] = conditions: previous report; cited from earlier work
[3] = tested on: PKCδ-MARK2-eIF2α signaling pathway; format: cell-based, mouse
Description: Since the phosphorylation of MARK2 at threonine 595 is required for its positive regulation of eIF2α phosphorylation (FIG. 1E), we asked whether this form of phosphorylated MARK2 is regulated upon cytosolic protein misfolding stress.
The condition of MG132 treatment at 20 μM for 4 h was chosen for optimal induction of eIF2α phosphorylation in the analysis of these MEFs (FIG. 9D). To test whether activation of MARK2 also can be induced by other types of stress, we subjected the cells to oxidative stress, such as sodium arsenite treatment, or ER stress, such as tunicamycin treatment.
Cells were washed twice with 1× PBS and then lysed and harvested on ice in RIPA solution (50 mM Tris-HCl (pH 7.6); 150 mM NaCl; 1% NP-40; 1% SDS; 100 mM sodium fluoride; 17.5 mM β-glycerophosphate; 0.5% sodium deoxycholate; 10% glycerol). The RIPA buffer was supplemented with EDTA-free protease inhibitor cocktail (Roche, USA), phosphatase inhibitor cocktail 2 and phosphatase inhibitor cocktail 3 (Sigma-Aldrich, USA), 1 μM phenylmethanesulfonyl fluoride, and 2 μM sodium orthovanadate. Lysates were kept cold on ice, pulse-sonicated for 10 min, and then centrifuged at 12,000 g at 4° C. for 10 min. The protein content of each sample was determined by a bicinchoninic acid (BCA) assay (Thermo Fisher). Equal amounts of total protein extract were resolved by SDS-PAGE and transferred to nitrocellulose membranes (Millipore HATF08550, USA). The blots were blocked with 5% w/v BSA and 0.05% NaN3 in TBST and incubated with primary antibodies at 4° C. overnight, then finally incubated with appropriate secondary antibodies.

[4] = tested on: interaction between PKCδ and HSP90; test: coimmunoprecipitation of HSP90 by anti-PKCδ antibody in MEFs; format: cell-based, mouse; conditions: MEF cells treated with MG132
Description: We next investigated how the PKC&-MARK2-eIF2α signaling pathway senses protein misfolding stress. Since misfolded proteins, including SOD1, are prone to interact with molecular chaperone proteins, Wang et al., 2009; Tummala et al., 2005, we reasoned that the upstream regulator PKCδ could potentially interact with a molecular chaperone and that disruption of this interaction by misfolded proteins during proteotoxic stress might be a mechanism to account for the activation of the PKCδ kinase. We searched a protein-protein interaction database, Szklarczyk et al., 2015, and identified several candidate interactors of PKCδ, including HSP90, HSP90a, and HSP70. To evaluate potential interactions between PKCδ and these molecular chaperones, we performed coimmunoprecipitation experiments with endogenous proteins in MEF cells. After immunoprecipitation of PKCδ, only HSP90 was pulled down by PKCδ (FIG. 3A). When the level of PKCδ protein was elevated via stable expression in MEF cells, more HSP90 protein could be coimmunoprecipitated by PKCδ. Conversely, depletion of PKCδ from MEFs or use of an IgG control instead of the anti-PKCδ antibody abolished the coimmunoprecipitation of HSP90, confirming the specific interaction between PKCδ and HSP90 (FIG. 3A). […]

[5] = WT and 4-KO MEFs, sodium arsenite 200 μM, 1 h

T1 sequence (Q05512 whole entry): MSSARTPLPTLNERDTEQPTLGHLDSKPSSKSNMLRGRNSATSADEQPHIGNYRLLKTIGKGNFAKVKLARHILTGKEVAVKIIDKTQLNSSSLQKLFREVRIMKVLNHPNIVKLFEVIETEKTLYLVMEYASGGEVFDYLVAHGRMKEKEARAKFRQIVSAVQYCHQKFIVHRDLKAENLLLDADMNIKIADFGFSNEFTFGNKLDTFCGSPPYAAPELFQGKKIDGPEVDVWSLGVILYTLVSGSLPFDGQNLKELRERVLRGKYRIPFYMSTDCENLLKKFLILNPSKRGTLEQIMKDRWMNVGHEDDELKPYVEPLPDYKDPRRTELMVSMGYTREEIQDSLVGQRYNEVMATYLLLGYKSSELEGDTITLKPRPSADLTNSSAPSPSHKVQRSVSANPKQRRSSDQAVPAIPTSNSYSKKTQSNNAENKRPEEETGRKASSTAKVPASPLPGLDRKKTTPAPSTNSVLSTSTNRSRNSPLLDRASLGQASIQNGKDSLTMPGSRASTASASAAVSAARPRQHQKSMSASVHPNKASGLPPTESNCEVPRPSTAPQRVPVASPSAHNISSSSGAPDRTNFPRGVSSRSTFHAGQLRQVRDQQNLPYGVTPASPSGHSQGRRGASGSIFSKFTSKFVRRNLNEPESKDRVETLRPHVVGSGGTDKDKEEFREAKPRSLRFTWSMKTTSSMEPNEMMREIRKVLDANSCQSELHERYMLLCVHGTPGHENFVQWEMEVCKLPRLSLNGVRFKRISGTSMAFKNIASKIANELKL

For `Cc1c[nH]c(-c2cnc(NCCNc3ccc(C#N)cn3)nc2-c2ccc(Cl)cc2Cl)n1` [CHIR99021], the “phosphorylation level of eIF2α-51S” value (MARK2 [1]; MEFs, 20 μM, 1 hr, versus DMSO control) was “decreased the phosphorylation level of eIF2α-^51S”, the “levels of phosphorylated eIF2α-51S” value (MARK2 [1]; at low concentrations) was “substantially lowering the levels of phosphorylated eIF2α-^51S” and the “activity in inhibiting the phosphorylation of eIF2α” value (MARK2 [1]) was “high activity”.

For `Cn1cc(C2=C(c3ccc(Cl)cc3Cl)C(=O)NC2=O)c2ccccc21` [SB216763], the MARK kinase function (MARK2 [2]) is listed as “inhibited MARK kinase function”, the “phosphorylation of eIF2α-51S” value (MARK2 [1]; MEFs, 20 μM, 1 hr, versus DMSO control, FIG. 21A) is listed as “substantially reduces the phosphorylation of eIF2α-^51S” and the “increase in the levels of phosphorylated eIF2α-51S in response to MG132” value (MARK2 [1]; cell co-treatment with MG132) is listed as “substantially diminished the increase”. The “activity in inhibiting the phosphorylation of eIF2α” value (MARK2 [1]) was “high activity for inhibiting eIF2α phosphorylation” and the “activity in inhibiting the phosphorylation of eIF2α” value (MARK2 [1]; listed as SB-216763) was “high activity”.

With `O=[As]O` [sodium arsenite] the “phosphorylation of MARK2-595T” value [3, 5] was “able to induce the phosphorylation” and the “phosphorylation of eIF2α-51S” value [3, 5] was “able to induce the phosphorylation”.

In the case of tunicamycin, the “phosphorylation of MARK2-595T” value ([3]; MEFs, tunicamycin 24 μg/ml, 2 h) is reported as “no effect on the phosphorylation of MARK2-^595T” and the “phosphorylation of eIF2α-51S” value ([3]; WT and 4-KO MEFs, tunicamycin 24 μg/ml, 2 h) is reported as “induced the phosphorylation of eIF2α-^51S in WT MEFs but not in the cells lacking the 4 previously known kinases”.

With `COc1cc2ncnc(Nc3ccc(F)c(Cl)c3)c2cc1OCCCN1CCOCC1` [Gefitinib] the “phosphorylation level of eIF2α-51S” value (MARK2 [1]; MEFs, 40 μM, 1 hr, versus DMSO control) was “needs a higher concentration than CHIR99021 to achieve the similar effect” and the “activity in inhibiting the phosphorylation of eIF2α” value (MARK2 [1]) was “low activity”.

In the case of `CC(C)C[C@@H](C=O)NC(=O)[C@H](CC(C)C)NC(=O)[C@H](CC(C)C)NC(=O)OCc1ccccc1` [MG132] (Cbz-Leu-Leu-Leu-aldehyde), the “level of the ATF4 protein” value ([3]; MEF cells treated with MG132) is reported as “increased the level of the ATF4 protein”, the “levels of phosphorylated MARK2-595T” value ([3]; MEF cells treated with MG132) is reported as “substantial increase” and the “levels of phosphorylated eIF2α-51S” value ([3]; MEF cells treated with MG132) is reported as “corresponding increase”. The “time at which phosphorylation of eIF2α-51S peaked” value ([3]; MEFs, MG132 20 μM time course) was “around 4 h” and the “interaction between PKCδ and HSP90” value [4] was “completely abolished the interaction between PKCδ and HSP90”.
